Data from patent publication US20170348381A1, “FORMULATION” (NovaBiotics Limited, priority 2016, published 2017).

Key:
Type in all cases: cell-based
A. fumigatus [1] = experiment: Antimicrobial susceptibility testing (CLSI M27-A3/M38-A2, chequerboard), MIC100, Example 2; conditions: for MIC100 of the antifungal in combination with Novamycin (+): in combination with MIC100 and sub-MIC100 concentrations of Novamycin; for MIC: Aspergillus fumigatus
Experimental: (§1) Antimicrobial susceptibility testing was performed based on CLSI approved standards M27-A3 and M38-A2. The effects of antimicrobial combinations were evaluated using a chequerboard method (Burkhart et al., 2006) in CLSI conditions.
(§2) Table 1. The MIC100 of clinically used antifungals individually (−) and in combination (+) with Novamycin®.
(§3) (−)=MIC100 (μg/mL) of the antifungal alone (+)=MIC100 (μg/mL) of the antifungal in combination with Novamycin®—=Not analysed

C. albicans [2] = experiment: as above; conditions: for MIC100 of the antifungal in combination with Novamycin (+): in combination with MIC100 and sub-MIC100 concentrations of Novamycin; for MIC: Candida albicans
Experimental: as §1, §2, §3

E. dermatitidis = experiment: as above; conditions: for MIC100 of the antifungal in combination with Novamycin (+): in combination with MIC100 and sub-MIC100 concentrations of Novamycin; for MIC: Exophiala dermatitidis
Experimental: as §1, §2, §3

A. fumigatus [3] = experiment: Neutral, additive or synergistic effect of combinations of novamycin plus other antifungal agents, Example 3; conditions: for Antifungal MIC100: antifungal alone; for MIC100 in Combination, AF: antifungal in combination with Novamycin; for Effect: combination of the antifungal with Novamycin
Experimental: as §1
(§4) The neutral, additive or synergistic effect of combinations of novamycin plus other antifungal agents was studied.

C. albicans [4] = experiment: as above; conditions: for Antifungal MIC100: antifungal alone; for MIC100 in Combination, AF: antifungal in combination with Novamycin; for Effect: combination of the antifungal with Novamycin
Experimental: as §1, §4

Row | Structure (SMILES) | MIC100 of the antifungal alone (−) (A. fumigatus [1]; antifungal alone) | MIC100 of the antifungal in combination with Novamycin (+) (A. fumigatus [1]) | MIC100 of the antifungal alone (−) (C. albicans [2]; antifungal alone) | MIC100 of the antifungal in combination with Novamycin (+) (C. albicans [2]) | MIC100 of the antifungal alone (−) (E. dermatitidis; antifungal alone) | MIC100 of the antifungal in combination with Novamycin (+) (E. dermatitidis) | Antifungal MIC100 (A. fumigatus [3]) | MIC100 in Combination, AF (A. fumigatus [3]) | Effect (A. fumigatus [3]) | Antifungal MIC100 (C. albicans [4]) | MIC100 in Combination, AF (C. albicans [4]) | Effect (C. albicans [4]) | MIC (A. fumigatus [1]; antifungal alone) | MIC (C. albicans [2]; antifungal alone) | MIC (E. dermatitidis; antifungal alone)
1 | C[C@@H]1[C@H](O)[C@@H](C)/C=C/C=C/C=C/C=C/C=C/C=C/C=C/[C@H](O[C@@H]2O[C@H](C)[C@@H](O)[C@H](N)[C@@H]2O)C[C@@H]2O[C@](O)(C[C@@H](O)C[C@@H](O)[C@H](O)CC[C@@H](O)C[C@@H](O)CC(=O)O[C@H]1C)C[C@H](O)[C@H]2C(=O)O [AmB, amphotericin B] | 0.25 µg/mL | 0.03 µg/mL | 0.25 µg/mL | 0.13 µg/mL | 1 µg/mL | 0.12 µg/mL | 0.25 µg/mL | 0.03 µg/mL | Additive | 0.5 µg/mL | 0.05 µg/mL | Additive |  |  | 
2 | CC[C@H](C)C[C@H](C)CCCCCCCCC(=O)N[C@H]1C[C@@H](O)[C@@H](NCCN)NC(=O)[C@@H]2[C@@H](O)CCN2C(=O)[C@H]([C@H](O)CCN)NC(=O)[C@H]([C@H](O)[C@@H](O)c2ccc(O)cc2)NC(=O)[C@@H]2C[C@@H](O)CN2C(=O)[C@H]([C@@H](C)O)NC1=O [CFN, caspofungin] |  | 0.06 µg/mL |  | 0.03 µg/mL |  | 3.94 µg/mL | 0.06 µg/mL | 0.04 µg/mL | Additive | 0.5 µg/mL | 0.03 µg/mL | Additive | 0.06 µg/mL | 0.5 µg/mL | 31.2 µg/mL
3 | CCC(C)n1ncn(-c2ccc(N3CCN(c4ccc(OCC5COC(Cn6cncn6)(c6ccc(Cl)cc6Cl)O5)cc4)CC3)cc2)c1=O (stereo not drawn) [ITZ, itraconazole] |  |  |  |  |  | 2 µg/mL |  |  |  |  |  |  |  |  | 4 µg/mL
4 | CC[C@@H]([C@H](C)O)n1ncn(-c2ccc(N3CCN(c4ccc(OC[C@@H]5CO[C@@](Cn6cncn6)(c6ccc(F)cc6F)C5)cc4)CC3)cc2)c1=O [PCZ, pozaconazole] |  | 0.125 µg/mL |  | 0.06 µg/mL |  |  | 0.25 µg/mL | 0.125 µg/mL | Additive | < 0.03 µg/mL | < 0.03 µg/mL | Neutral | 0.25 µg/mL | 0.13 µg/mL | 
5 | C[C@@H](c1ncncc1F)[C@](O)(Cn1cncn1)c1ccc(F)cc1F [Voriconazole] |  |  |  |  |  |  | 0.25 µg/mL | 0.25 µg/mL | Neutral |  |  |  |  |  | 
